Experimental data reported in PubChem BioAssay AID1963447 (Molecular Pharmacology Branch, DTP, NCI, 2024).

Tested on: 885512-296-R-J2-PDC complex spheroid growth, % test/control
Test: Anticancer human tumor 885512-296-R-J2-PDC patient-derived breast carcinoma cell line growth inhibition [Asc]
Conditions: for IC50: curve of first compound; for viability, T/C: stronger effect = lower value
Procedure, shortened: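 Tumor cells were grown as complex spheroids with human endothelial cells (HUVEC) and human mesenchymal stem cells as stroma. Agents were tested alone and in combination, in half-log steps down from the clinical Cmax, or from 10 microM where Cmax was unknown.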

[1] = second compound 0.03 µM, first compound 0.0316 µM
[2] = second compound 0.03 µM, first compound 0.1 µM
[3] = second compound 0.03 µM, first compound 0.316 µM
[4] = second compound 0.03 µM, first compound 1 µM
[5] = second compound 0.0949 µM, first compound 0.0316 µM
[6] = second compound 0.0949 µM, first compound 0.1 µM
[7] = second compound 0.0949 µM, first compound 0.316 µM
[8] = second compound 0.0949 µM, first compound 1 µM
[9] = second compound 0.3 µM, first compound 0.0316 µM
[10] = second compound 0.3 µM, first compound 0.1 µM
[11] = second compound 0.3 µM, first compound 0.316 µM
[12] = second compound 0.3 µM, first compound 1 µM
[13] = second compound 0.949 µM, first compound 0.0316 µM
[14] = second compound 0.949 µM, first compound 0.1 µM
[15] = second compound 0.949 µM, first compound 0.316 µM
[16] = second compound 0.949 µM, first compound 1 µM
[17] = second compound 3 µM, first compound 0.0316 µM
[18] = second compound 3 µM, first compound 0.1 µM
[19] = second compound 3 µM, first compound 0.316 µM
[20] = second compound 3 µM, first compound 1 µM
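Also: spheroids exposed to compounds for seven days.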
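For viability, T/C in this document: 100% = DMSO vehicle control wells.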

| Structure (SMILES) | IC50 (second compound 0.03 µM) [µM] | IC50 (second compound 0.0949 µM) [µM] | IC50 (second compound 0.3 µM) [µM] | IC50 (second compound 0.949 µM) [µM] | IC50 (second compound 3 µM) [µM] | viability, T/C [1] [%] | viability, T/C [2] [%] | viability, T/C [3] [%] | viability, T/C [4] [%] | viability, T/C [5] [%] | viability, T/C [6] [%] | viability, T/C [7] [%] | viability, T/C [8] [%] | viability, T/C [9] [%] | viability, T/C [10] [%] | viability, T/C [11] [%] | viability, T/C [12] [%] | viability, T/C [13] [%] | viability, T/C [14] [%] | viability, T/C [15] [%] | further results |
| --- | --- | --- | --- | --- | --- | --- | --- | --- | --- | --- | --- | --- | --- | --- | --- | --- | --- | --- | --- | --- | --- |
| C=CC(=O)N1CCN(c2nc(=O)n(-c3c(C)ccnc3C(C)C)c3nc(-c4c(O)cccc4F)c(F)cc23)C(C)C1 (stereo not given) + CCN1C(C(=O)NC23CCC(C(=O)O)(CC2)CC3)C(c2cccc(Cl)c2F)C2(C(=O)Nc3cc(Cl)ccc32)C12CCCCC2 | > 10 | > 10 | > 10 | > 10 | < 0.0316 | 93.7 | 96.8 | 111 | 112 | 73.5 | 108 | 114 | 108 | 89.8 | 88.3 | 117 | 95.3 | 68.7 | 71.2 | 70 | viability, T/C (second compound 0.03 µM, first compound 3.16 µM): 101%; viability, T/C (second compound 0.03 µM, first compound 10 µM): 61.3%; viability, T/C (second compound 0.0949 µM, first compound 3.16 µM): 96.3%; viability, T/C (second compound 0.0949 µM, first compound 10 µM): 64%; viability, T/C (second compound 0.3 µM, first compound 3.16 µM): 101%; viability, T/C (second compound 0.3 µM, first compound 10 µM): 72%; viability, T/C [16]: 86.9%; viability, T/C (second compound 0.949 µM, first compound 3.16 µM): 91.8%; viability, T/C (second compound 0.949 µM, first compound 10 µM): 61%; viability, T/C [17]: 38.8%; viability, T/C [18]: 52.6%; viability, T/C [19]: 46.4%; viability, T/C [20]: 61.1%; viability, T/C (second compound 3 µM, first compound 3.16 µM): 58.5%; viability, T/C (second compound 3 µM, first compound 10 µM): 52.2% |
| CCN1CCN(Cc2ccc(Nc3ncc(F)c(-c4cc(F)c5nc(C)n(C(C)C)c5c4)n3)nc2)CC1 + CCN1C(C(=O)NC23CCC(C(=O)O)(CC2)CC3)C(c2cccc(Cl)c2F)C2(C(=O)Nc3cc(Cl)ccc32)C12CCCCC2 | > 1 | > 1 | > 1 | > 1 | < 0.00316 | 81.3 | 76.4 | 79.1 | 62 | 80.5 | 64.1 | 80.8 | 59.9 | 75.2 | 69 | 66 | 56.3 | 60.3 | 50.5 | 50.4 | viability, T/C (second compound 0.03 µM, first compound 0.00316 µM): 98.5%; viability, T/C (second compound 0.03 µM, first compound 0.01 µM): 101%; viability, T/C (second compound 0.0949 µM, first compound 0.00316 µM): 96.1%; viability, T/C (second compound 0.0949 µM, first compound 0.01 µM): 91.8%; viability, T/C (second compound 0.3 µM, first compound 0.00316 µM): 74.2%; viability, T/C (second compound 0.3 µM, first compound 0.01 µM): 90.3%; viability, T/C (second compound 0.949 µM, first compound 0.00316 µM): 69.7%; viability, T/C (second compound 0.949 µM, first compound 0.01 µM): 58.7%; viability, T/C [16]: 54.9%; viability, T/C (second compound 3 µM, first compound 0.00316 µM): 41.1%; viability, T/C (second compound 3 µM, first compound 0.01 µM): 35.3%; viability, T/C [17]: 40.8%; viability, T/C [18]: 38.7%; viability, T/C [19]: 37.3%; viability, T/C [20]: 39.4% |
